Columns and labels:
Rattus norvegicus [1] = test: Oral dose necessary to produce excretion of 2 mequiv of Na+/kg in rat urine in a 4-hr period after oral administration; inactive; type: ADME, organism-based; conditions: in vivo
Rattus norvegicus [2] = test: Oral dose necessary to produce an excretion of 2 mequiv of Na+/kg in the rat urine in the 4-h period after peroral administration; type: ADME, organism-based; conditions: in vivo
Rattus norvegicus [3] = test: Percent change of arterial blood pressure in spontaneously hypertensive rats at the dose of 30 mg/kg (p.o.) after […] (control BP(mm Hg)=210); type: functional; conditions: route oral
Rattus norvegicus [4] = test: Percent change of arterial blood pressure in spontaneously hypertensive rats at the dose of 30 mg/kg (p.o.) after 24 hr (control BP(mm Hg)=210); type: functional; conditions: route oral
Rattus norvegicus [5] = test: Percent change of arterial blood pressure in spontaneously hypertensive rats at the dose of 30 mg/kg (p.o.) after 6 hr (control BP(mm Hg)=210); type: functional; conditions: route oral
Rattus norvegicus [6] = test: Percent change of arterial blood pressure in spontaneously hypertensive rats at the dose of 100 mg/kg (p.o.) after […] (control BP(mm Hg)=206); type: functional; conditions: route oral
Rattus norvegicus [7] = test: Percent change of arterial blood pressure in spontaneously hypertensive rats at the dose of 300 mg/kg (p.o.) after […] (control BP(mm Hg)=214); type: functional; conditions: route oral
Rattus norvegicus [8] = test: Percent change of arterial blood pressure in spontaneously hypertensive rats at the dose of 300 mg/kg (p.o.) after 6 hr (control BP(mm Hg)=214); type: functional; conditions: route oral
Rattus norvegicus [9] = test: Percent change of arterial blood pressure in spontaneously hypertensive rats at the dose of 100 mg/kg (p.o.) after 6 hr (control BP(mm Hg)=206); type: functional; conditions: route oral
Rattus norvegicus [10] = test: Percent change of arterial blood pressure in spontaneously hypertensive rats at the dose of 100 mg/kg (p.o.) after 24 hr (control BP(mm Hg)=206); type: functional; conditions: route oral
Rattus norvegicus [11] = test: Percent change of arterial blood pressure in spontaneously hypertensive rats at the dose of 300 mg/kg (p.o.) after 24 h (control BP(mm Hg)=214); type: functional; conditions: route oral

| Compound | ED2 (Rattus norvegicus [1]) | ED2 (Rattus norvegicus [2]) | further results |
| --- | --- | --- | --- |
| CCOC(=O)COc1ccc(C(=O)c2cc(CN3CCS(=O)(=O)CC3)c(O)c(CN3CCS(=O)(=O)CC3)c2)c(Cl)c1Cl | Not Active | – | – |
| CCOC(=O)COc1ccc(C(=O)c2ccc3c(c2)CNC(=O)O3)c(Cl)c1Cl | Not Active | – | – |
| CN(C)Cc1cc(C(=O)c2ccc(OCC(=O)O)c(Cl)c2Cl)ccc1O | Not Active | – | – |
| CCOC(=O)COc1ccc(C(=O)c2ccc(O)c(CN3CCS(=O)(=O)CC3)c2)c(Cl)c1Cl | Not Active | – | – |
| CN(C)Cc1cc(C(=O)c2ccc(OCC(=O)O)c(Cl)c2Cl)cc(CN(C)C)c1O.Cl | Not Active | – | – |
| CCOC(=O)COc1ccc(C(=O)c2cc(I)c(O)c(CN)c2)c(Cl)c1Cl.Cl | – | 1 mg/kg | – |
| CCOC(=O)COc1ccc(C(=O)c2ccc(O)c(CN)c2)cc1.Cl | – | 10 mg/kg | – |
| CCOC(=O)COc1ccc(C(=O)c2cc(Cl)c(O)c(CN)c2)c(Cl)c1Cl.Cl | – | 1 mg/kg | – |
| CCOC(=O)COc1ccc(C(=O)c2ccc(CN)c(OC)c2)c(Cl)c1Cl.Cl | Not Active | – | – |
| CCOC(=O)COc1ccc(C(=O)c2cc(C)c(O)c(CN)c2)c(Cl)c1Cl.Cl | – | 1 mg/kg | – |
| CCOC(=O)COc1ccc(C(=O)c2cccc(CN)c2)c(Cl)c1Cl.Cl | – | 12 mg/kg | – |
| Cl.NCc1cc(C(=O)c2ccc(OCC(=O)O)c(Cl)c2Cl)ccc1O | Not Active | – | – |
| CCOC(=O)COc1ccc(C(=O)c2ccc(CN)cc2)c(Cl)c1Cl.Cl | Not Active | – | – |
| CCOC(=O)COc1ccc(C(=O)c2cccc(CN)c2O)c(Cl)c1Cl.Cl | Not Active | – | – |
| CCOC(=O)COc1ccc(C(=O)c2cc(CN3CCCCC3)c(O)c(CN3CCCCC3)c2)c(Cl)c1Cl.Cl | Not Active | – | – |
| CCOC(=O)COc1ccc(C(=O)c2cc(CN)ccc2O)c(Cl)c1Cl.Cl | – | 3 mg/kg | – |
| CCOC(=O)COc1ccc(C(=O)c2ccc(O)c(CN3CCCCC3)c2)c(Cl)c1Cl.Cl | Not Active | – | – |
| CCOC(=O)COc1ccc(C(=O)c2ccc(O)c(CN)c2)c2ccccc12.Cl | – | 15 mg/kg | – |
| CCOC(=O)COc1ccc(C(=O)c2ccc(O)c(CN)c2)cc1Cl.Cl | – | 5 mg/kg | – |
| CCOC(=O)COc1ccc(C(=O)c2ccc(O)c(CN3CCOCC3)c2)c(Cl)c1Cl.Cl | Not Active | – | – |
| CCOC(=O)COc1ccc(C(=O)c2cc(CN3CCCC3)c(O)c(CN3CCCC3)c2)c(Cl)c1Cl.Cl | Not Active | – | – |
| CCOC(=O)COc1ccc(C(=O)c2cc(CN)c(O)c(CN)c2)c(Cl)c1Cl.Cl | – | 11 mg/kg | – |
| CCOC(=O)COc1ccc(C(=O)c2cc(CN3CCOCC3)c(O)c(CN3CCOCC3)c2)c(Cl)c1Cl.Cl | Not Active | – | – |
| CCOC(=O)COc1ccc(C(=O)c2ccc(O)c(CN)c2)c(Cl)c1.Cl | – | 5 mg/kg | – |
| CCOC(=O)COc1ccc(C(=O)c2ccc(O)c(CN)c2)c(C)c1C.Cl | – | 6 mg/kg | – |
| CCOC(=O)COc1ccc(C(=O)c2cc(CN(C)C)c(O)c(CN(C)C)c2)c(Cl)c1Cl.Cl | – | 7 mg/kg | – |
| Cl.NS(=O)(=O)c1cc(C(=O)O)c(NCc2ccco2)cc1Cl [FUROSEMIDE HYDROCHLORIDE] | – | – | Change (Rattus norvegicus [3]): -10%; Change (Rattus norvegicus [4]): 1%; Change (Rattus norvegicus [5]): -6%; Change (Rattus norvegicus [6]): -11%; Change (Rattus norvegicus [7]): -21%; Change (Rattus norvegicus [8]): -31%; Change (Rattus norvegicus [9]): -3%; Change (Rattus norvegicus [10]): -12%; Change (Rattus norvegicus [11]): -37% |

Now from value to compound, other results behind:

| ED2 (Rattus norvegicus [1]) | ED2 (Rattus norvegicus [2]) | Compound | further results |
| --- | --- | --- | --- |
| Not Active | – | CCOC(=O)COc1ccc(C(=O)c2ccc(O)c(C(=O)O)c2)c(Cl)c1Cl | – |
| Not Active | – | CCOC(=O)COc1ccc(C(=O)c2ccc(O)c(CO)c2)c(Cl)c1Cl | – |
| Not Active | – | CCOC(=O)COc1ccc(C(=O)c2ccc(O)c(CNC(C)=O)c2)c(Cl)c1Cl | – |
| Not Active | – | CCOC(=O)COc1ccc(C(=O)c2ccc(O)c(C(N)=O)c2)c(Cl)c1Cl | – |
| – | 34 mg/kg | CCOC(=O)COc1ccc(C(=O)c2ccc(O)c(CN=C(N)N)c2)c(Cl)c1Cl | – |
| Not Active | – | CCOC(=O)COc1ccc(C(=O)c2ccc(O)c(C[N+](C)(C)C)c2)c(Cl)c1Cl.[Cl-] | – |
| Not Active | – | Br.CCOC(=O)COc1ccc(C(=O)c2ccc(OC)c(CN)c2)c(Cl)c1Cl | – |
| – | 16 mg/kg | CCOC(=O)COc1ccc(C(=O)c2ccc(O)c(CN(C)C)c2)c(Cl)c1Cl.Cl | – |
| – | 50 mg/kg | CCOC(=O)COc1ccc(C(=O)c2ccc(Cl)c(CN)c2)c(Cl)c1Cl.Cl | – |
| Not Active | – | CCOC(=O)COc1ccc(C(=O)c2ccc(O)c(CN3CCCC3)c2)c(Cl)c1Cl.Cl | – |
| – | 1.2 mg/kg | CCOC(=O)COc1ccc(C(=O)c2ccc(O)c(C(C)N)c2)c(Cl)c1Cl.Cl (stereo not given) | – |
| Not Active | – | CCOC(=O)COc1ccc(C(=O)c2ccc(O)c(CN(CC)CC)c2)c(Cl)c1Cl.Cl | – |
| Not Active | – | Br.CCOC(=O)COc1ccc(C(=O)c2ccc(CN)c(O)c2)c(Cl)c1Cl | – |
| Not Active | – | CCOC(=O)COc1ccc(C(=O)c2cc(CN(CC)CC)c(O)c(CN(CC)CC)c2)c(Cl)c1Cl.Cl | – |
| – | 4 mg/kg | CCOC(=O)COc1ccc(C(=O)c2ccc(O)c(CNO)c2)c(Cl)c1Cl.Cl | – |

Source: ChEMBL document CHEMBL1122781, “[(Aminomethyl)aryloxy]acetic acid esters. A new class of high-ceiling diuretics. 1. Effects of nitrogen and aromatic nuclear substitution” (J Med Chem, 1984)
